Several values for one entry are separate records, joined by “and”; a condition that tells them apart may be missing. Identical values can stand only once. Like-named read-outs stand apart in the source and are kept apart here.
How the values were obtained:
[1] = Flowability, FT4 Powder Rheometer (REP+VFR); format: physicochemical; conditions: 25 mm blade, 25 ml vessel; for BFE (Basic Flow Energy = Energy Test 7): tipspeed 100 mm/s
Method: Instrument: FT4 Powder Rheometer (Freeman Technology Ltd).
Methodology: The blade was rotated and simultaneously moved axially into a powder sample whist axial force and rotational forces are measured.
The 25 mm blade and a 25 ml split borosilicate test vessel were used.
The Stability and Variable Flow Rate programs were run together by combining the two methods into one program (REP+VFR). The REP+VFR study is a combination of the seven conditioning and test cycles (blade tipspeed is 100 mm/s) at constant speed and the four conditioning and test cycles (blade tipspeed is 100, 70, 40 and 10 mm/s, respectively) with decreasing in blade speed. Definitions of the Flow Parameters:
Basic Flow Energy (BFE)=Energy Test 7, mJ
Stability index (SI)=Energy test 7/Energy Test 1

[2] = Electrostatic charge measurement (shaking can, Faraday cup); format: physicochemical; conditions: for Average Charge Density of Batch: 3 samples; for Calculated Charge Density: shaken 90 seconds
Text: Electrostatic Charge Measurement
Equipment and Accessories
Electrical Shaker—Scientific Industries type Vortex-2 Genie (including specific holder for the shaking cans).
Electrostatic Charge Meter—Monroe Electronics type Nanocoulomb Meter 253 (Faraday Cup).
Metal shaking can, S.S. 316, 30×50_mm.
Plastic shaking can, Perspex, 30×50_mm.
Description of Test Procedure
Calibration of the Electrostatic Charge Meter, prior the test according to manufacturer's procedure.
6 sample cans were used for each batch.
The shaking can placed in flat dish, the sample cam was opened and the powder was manually poured into the shaking can.
The shaking can was hermetically closed by plastic cover and mounted in the holder.
The electrical shaker was operated for 90 seconds, at maximum rate.
Subsequent of the shaking period the shaking can was moved into the flat dish, the cover was removed and the powder was manually poured into a glass can within the Faraday-Cup. Some of the powder was transferred by gravitational pouring (90-99%), the rest was transferred by manually push using wooden spatula (with strict adherence to tender motion).
The Faraday-Cup was closed and the charge reading (in meter display) was recorded. The described test stages were equally conducted on the selected 6 samples of each batch, as follow: 3 powder samples were shaken in metal can, 3 powder samples were shaken in plastic can. All the samples were shaken in each can for the same time period of 90 seconds.

[3] = cited from earlier work
MT3 receptor = biological target: T1, MT3 receptor (Homo sapiens, UniProt P16083); conditions: cited from earlier work
T1 sequence (P16083 1-231): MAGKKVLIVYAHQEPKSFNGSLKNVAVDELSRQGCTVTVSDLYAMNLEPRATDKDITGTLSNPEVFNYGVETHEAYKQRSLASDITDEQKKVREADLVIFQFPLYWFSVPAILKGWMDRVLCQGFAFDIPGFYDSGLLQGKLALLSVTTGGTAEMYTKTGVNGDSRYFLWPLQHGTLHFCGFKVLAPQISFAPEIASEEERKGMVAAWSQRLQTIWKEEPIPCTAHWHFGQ

melatonin MT1 receptor = melatonin MT1 receptor (Homo sapiens, UniProt P48039); conditions: cited from earlier work
Sequence of melatonin MT1 receptor (P48039 whole entry): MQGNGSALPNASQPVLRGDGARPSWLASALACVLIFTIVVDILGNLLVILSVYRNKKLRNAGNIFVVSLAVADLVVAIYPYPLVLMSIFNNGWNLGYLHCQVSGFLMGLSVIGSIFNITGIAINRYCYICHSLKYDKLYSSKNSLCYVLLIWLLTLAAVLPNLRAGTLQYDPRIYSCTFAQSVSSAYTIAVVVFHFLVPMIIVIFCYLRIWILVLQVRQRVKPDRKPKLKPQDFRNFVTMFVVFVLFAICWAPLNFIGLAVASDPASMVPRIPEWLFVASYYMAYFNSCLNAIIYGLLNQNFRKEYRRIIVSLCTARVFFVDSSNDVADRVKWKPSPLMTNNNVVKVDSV

melatonin MT2 receptor = biological target: T2, melatonin MT2 receptor (Homo sapiens, UniProt P49286); conditions: cited from earlier work
T2 sequence (P49286 1-362): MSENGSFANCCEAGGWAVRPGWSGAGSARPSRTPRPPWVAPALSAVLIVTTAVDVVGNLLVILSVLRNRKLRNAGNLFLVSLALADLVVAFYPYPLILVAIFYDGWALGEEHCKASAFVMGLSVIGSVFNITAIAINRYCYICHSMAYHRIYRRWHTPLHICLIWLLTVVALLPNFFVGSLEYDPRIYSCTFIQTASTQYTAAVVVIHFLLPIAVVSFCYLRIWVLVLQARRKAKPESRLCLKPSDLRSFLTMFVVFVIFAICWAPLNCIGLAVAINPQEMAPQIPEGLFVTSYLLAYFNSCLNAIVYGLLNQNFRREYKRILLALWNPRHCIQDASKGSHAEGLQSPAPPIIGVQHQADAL

| SI (Stability index = Energy test 7/Energy Test 1) [1] | BFE (Basic Flow Energy = Energy Test 7) ([1]; listed as Sample from Ethylacetate) [mJ] | average charge density relative to sample obtained from Toluene ([2]; metal can) | Average Charge Density of Batch ([2]; metal can) [nC/gr] | Calculated Charge Density ([2]; metal can) | average charge density relative to sample obtained from Toluene ([2]; plastic can) | Average Charge Density of Batch ([2]; plastic can) [nC/gr] | Calculated Charge Density ([2]; plastic can) | BFE (Basic Flow Energy = Energy Test 7) ([1]; listed as Sample from Toluene) [mJ] | SI (Stability index = Energy test 7/Energy Test 1) ([1]; listed as Sample from Toluene) | SMILES | solubility ([3]; 1-octanol) | solubility ([3]; DMSO) | solubility ([3]; aqueous buffer) | solubility ([3]; ethanol) | solubility ([3]; methanol) | solubility ([3]; water) | selectivity over the MT3 receptor (MT3 receptor) | affinity for melatonin MT1 receptor (melatonin MT1 receptor) | affinity for melatonin MT2 receptor (melatonin MT2 receptor) |
| --- | --- | --- | --- | --- | --- | --- | --- | --- | --- | --- | --- | --- | --- | --- | --- | --- | --- | --- | --- |
| 0.622 | 181 | about 12 times | 9.63 | 8.8 nC/gr and 10.1 nC/gr and 10.0 nC/gr | about 15 times | 10.82 | 10.1 nC/gr and 14.05 nC/gr and 8.3 nC/gr | – | – | CCC(=O)NCC[C@@H]1CCc2ccc3c(c21)CCO3 [Ethyl Acetate, ramelteon] | – | – | – | – | – | – | – | – | – |
| – | – | – | – | – | – | – | – | – | – | CCC(=O)NCC[C@@H]1CCc2ccc3c(c21)CCO3 [Ramelteon, (S)—N-[2-(1,6,7,8-tetrahydro-2H-indeno-[5,4-b]furan-8-yl)ethyl]propionamide] | freely soluble | freely soluble | highly soluble | freely soluble | freely soluble | highly soluble | selectivity over the MT3 receptor | high affinity | high affinity |
| – | – | – | 0.82 | – | – | 0.72 | 0.85 nC/gr and 0.6 nC/gr and 0.7 nC/gr | 92.5 | 1.02 | CCC(=O)NCC[C@@H]1CCc2ccc3c(c21)CCO3 [Toluene, ramelteon] | – | – | – | – | – | – | – | – | – |

Source: patent publication US8084630B2, “Process for the synthesis of ramelteon and its intermediates” (Teva Pharmaceutical Industries Ltd., priority 2007, dated 2011)
